Measurements taken from patent US20230125585A1, “DOSING PROTOCOLS AND REGIMENS FOR AMINOSTEROL TREATMENT” (Enterin, Inc., priority 2019, published 2023).
Like-named read-outs stand apart in the source and are kept apart here.

Columns and labels:
α-synuclein protein = α-synuclein protein (Homo sapiens, UniProt P37840); settings: cited from earlier work
[1] = short term placebo controlled trial, PD constipation; cited from earlier work
mouse stomach mRNA = assay: Oral dosing of squalamine (ENT-01) in old mice, stomach transcriptome by RNAseq; assay type: in vivo
Source text: The present example evaluated the impact of oral dosing of squalamine (ENT-01) on the gastrointestinal (GI) tissue of old mice (78 weeks). […] After 2 weeks of dosing the animals were euthanized, and the GI tracts sectioned into stomach, duodenum, jejunum, ileum, caecum, colon, and rectum. The stomach tissues were then sent for histology, and the transcriptomes analyzed by RNAseq.
The dosing schedule used to determine the effect of orally administered squalamine and MSI-1436 on the GI tracts of young and old mice was as follows. Male C57Bl/6 mice, aged 20 and 78 weeks, were obtained from Jackson labs. Animals were exposed to 12 hr light dark cycles and provided Teklad standard mouse diet and water ad lib.
Animals were dosed once daily by oral gavage in the morning for a total of 14 days. Animals were fasted 3-4 hours prior to dosing and 1 hour following. The test article was dissolved in 0.5% hydroxypropylcellulose in water. On day 15 the animals were euthanized by CO2 asphyxiation, necropsied, and tissues prepared for histology and RNAseq analysis.
The GI tracts of the animals were sectioned into stomach, duodenum, jejunum, ileum, caecum, colon, and rectum. The tissues were then sent for histology, and the transcriptomes analyzed by RNAseq.

[2] = Absorption / oral bioavailability of aminosterols; assay type: in vivo; settings: oral administration
[3] = Phase 2a (n = 34), drug related adverse events; assay type: in vivo, human
[4] = human, in vivo, 25 days
[5] = orally administered; mice with constipation due to overexpression of human αS; cited from earlier work
[6] = intravenous administration; cited from earlier work
[7] = Phase 2(b) study, aminosterol dosage and body position, Parkinson's disease patients
[8] = 15 patients with assessable MMSE improvement

SMILES: CC(C)[C@@H](CC[C@@H](C)[C@H]1CC[C@H]2[C@@H]3[C@H](O)C[C@H]4C[C@@H](NCCCNCCCCNCCCN)CC[C@]4(C)[C@H]3CC[C@]12C)OS(=O)(=O)O [aminosterol 1436]
- initiation of aggregation of the α-synuclein protein (α-synuclein protein): inhibit the initiation of aggregation

SMILES: CCCCC(F)(F)[C@@]1(O)CC[C@H]2[C@@H](CC(=O)[C@@H]2CCCCCCC(=O)O)O1 [Lubiprostone]
- share of treated in whom effective [1]: about 50%

SMILES: CC(C)[C@@H](CC[C@@H](C)[C@H]1CC[C@H]2[C@@H]3[C@H](O)C[C@H]4C[C@@H](NCCCNCCCCN)CC[C@]4(C)[C@H]3CC[C@]12C)OS(=O)(=O)O [squalamine]
- Corneodesmosin mRNA % increase (mouse stomach mRNA; old + Ent-01 vs old mice): 94%
- Cornifelin mRNA % increase (mouse stomach mRNA; old + Ent-01 vs old mice): 261%
- Dermokine mRNA % increase (mouse stomach mRNA; old + Ent-01 vs old mice): 290%
- Filaggrin mRNA % increase (mouse stomach mRNA; old + Ent-01 vs old mice): 671%
- H19_imprinted_maternally_expressed_transcript mRNA % increase (mouse stomach mRNA; old + Ent-01 vs old mice): 656%
- Hornerin mRNA % increase (mouse stomach mRNA; old + Ent-01 vs old mice): 253%
- Loricrin mRNA % increase (mouse stomach mRNA; old + Ent-01 vs old mice): 381%
- Myoglobin mRNA % increase (mouse stomach mRNA; old + Ent-01 vs old mice): 437%
- Sciellin mRNA % increase (mouse stomach mRNA; old + Ent-01 vs old mice): 219%
- caspase_14 mRNA % increase (mouse stomach mRNA; old + Ent-01 vs old mice): 664%
- collagen_type_XVII_alpha_1 mRNA % increase (mouse stomach mRNA; old + Ent-01 vs old mice): 256%
- cystatin_E/M mRNA % increase (mouse stomach mRNA; old + Ent-01 vs old mice): 491%
- desmocollin_1 mRNA % increase (mouse stomach mRNA; old + Ent-01 vs old mice): 104%
- desmoglein_1_beta mRNA % increase (mouse stomach mRNA; old + Ent-01 vs old mice): 184%
- gap_junction_protein_beta_4 mRNA % increase (mouse stomach mRNA; old + Ent-01 vs old mice): 470%
- gap_junction_protein_beta_6 mRNA % increase (mouse stomach mRNA; old + Ent-01 vs old mice): 455%
- kallikrein_related-peptidase_7_(chymotryptic_stratum mRNA % increase) (mouse stomach mRNA; old + Ent-01 vs old mice): 847%
- keratin_1 mRNA % increase (mouse stomach mRNA; old + Ent-01 vs old mice): 425%
- keratin_10 mRNA % increase (mouse stomach mRNA; old + Ent-01 vs old mice): 610%
- keratinocyte_differentiation_associated_protein mRNA % increase (mouse stomach mRNA; old + Ent-01 vs old mice): 407%
- keratinocyte_expressed_proline-rich mRNA % increase (mouse stomach mRNA; old + Ent-01 vs old mice): 270%
- late_cornified_envelope_1A1 mRNA % increase (mouse stomach mRNA; old + Ent-01 vs old mice): 339%
- late_cornified_envelope_1A2 mRNA % increase (mouse stomach mRNA; old + Ent-01 vs old mice): 361%
- late_cornified_envelope_1B mRNA % increase (mouse stomach mRNA; old + Ent-01 vs old mice): 471%
- late_cornified_envelope_1C mRNA % increase (mouse stomach mRNA; old + Ent-01 vs old mice): 338%
- late_cornified_envelope_1E mRNA % increase (mouse stomach mRNA; old + Ent-01 vs old mice): 340%
- late_cornified_envelope_1F mRNA % increase (mouse stomach mRNA; old + Ent-01 vs old mice): 338%
- late_cornified_envelope_1G mRNA % increase (mouse stomach mRNA; old + Ent-01 vs old mice): 197%
- late_cornified_envelope_1H mRNA % increase (mouse stomach mRNA; old + Ent-01 vs old mice): 233%
- late_cornified_envelope_1I mRNA % increase (mouse stomach mRNA; old + Ent-01 vs old mice): 654%
- late_cornified_envelope_1J mRNA % increase (mouse stomach mRNA; old + Ent-01 vs old mice): 296%
- late_cornified_envelope_1L mRNA % increase (mouse stomach mRNA; old + Ent-01 vs old mice): 365%
- late_cornified_envelope_1M mRNA % increase (mouse stomach mRNA; old + Ent-01 vs old mice): 656%
- late_cornified_envelope_3C mRNA % increase (mouse stomach mRNA; old + Ent-01 vs old mice): 130%
- late_cornified_envelope_3E mRNA % increase (mouse stomach mRNA; old + Ent-01 vs old mice): 205%
- late_cornified_envelope_3F mRNA % increase (mouse stomach mRNA; old + Ent-01 vs old mice): 192%
- lectin_galactose_binding_soluble_7 mRNA % increase (mouse stomach mRNA; old + Ent-01 vs old mice): 481%
- myosin_binding_protein_C_slow-type mRNA % increase (mouse stomach mRNA; old + Ent-01 vs old mice): 209%
- myosin_heavy_polypeptide_1_skeletal_muscle mRNA % increase (mouse stomach mRNA; old + Ent-01 vs old mice): 289%
- myosin_heavy_polypeptide_8_skeletal_muscle mRNA % increase (mouse stomach mRNA; old + Ent-01 vs old mice): 371%
- myosin_light_chain_phosphorylatable_fast_skeletal mRNA % increase (mouse stomach mRNA; old + Ent-01 vs old mice): 295%
- myosin_light_polypeptide_3 mRNA % increase (mouse stomach mRNA; old + Ent-01 vs old mice): 747%
- myozenin_1 mRNA % increase (mouse stomach mRNA; old + Ent-01 vs old mice): 524%
- myozenin_2 mRNA % increase (mouse stomach mRNA; old + Ent-01 vs old mice): 341%
- titin-cap mRNA % increase (mouse stomach mRNA; old + Ent-01 vs old mice): 298%
- mRNA levels for all of the genes in Table 4 (mouse stomach mRNA; old mice after treatment with squalamine): significant increase
- absorption in blood [2]: less than 0.3%
- Drug related adverse event Diarrhea, Mild, % [3]: (35) %
- Drug related adverse event Diarrhea, Moderate, % [3]: (5.8) %
- Drug related adverse event Diarrhea, Severe, % [3]: (2.9) %
- Drug related adverse event Dizziness, Mild, % [3]: (20.5) %
- Drug related adverse event Dizziness, Moderate, % [3]: (2.9) %
- Drug related adverse event Nausea, Mild, % [3]: (47) %
- Drug related adverse event Nausea, Moderate, % [3]: (2.9) %
- Drug related adverse event Vomiting, Mild, % [3]: (5.8) %
- Drug related adverse event Diarrhea, Mild, % [4]: (2.7) %
- Drug related adverse event Diarrhea, Moderate, % [4]: (2.7) %
- Drug related adverse event Diarrhea, Severe, % [4]: (2.7) %
- Drug related adverse event Dizziness, Mild, % [4]: (3) %
- Drug related adverse event Nausea, Mild, % [4]: (6.3) %
- Drug related adverse event Nausea, Moderate, % [4]: (2.7) %
- Drug related adverse event Vomiting, Mild, % [4]: (2.7) %
- Drug related adverse event Vomiting, Moderate, % [4]: (2.7) %
- Unrelated adverse event Contusion*, Mild, % [4]: (2.1) %
- Unrelated adverse event Dizziness, Mild, % [4]: (4.2) %
- Unrelated adverse event Fall*, Mild, % [4]: (4.2) %
- Unrelated adverse event Fall*, Moderate, % [4]: (2.1) %
- Unrelated adverse event Pain*, Mild, % [4]: (2.1) %
- Unrelated adverse event Pain*, Moderate, % [4]: (2.1) %
- Unrelated adverse event Phlebotomy site irritation*, Mild, % [4]: (2.1) %
- Unrelated adverse event Rectal burning, Mild, % [4]: (2.1) %
- Unrelated adverse event Rib fracture*, Mild, % [4]: (2.1) %
- Unrelated adverse event Squamous cell Ca*, Mild, % [4]: (2.1) %
- Unrelated adverse event Syncope*, Moderate, % [4]: (2.1) %
- initiation of aggregation of the α-synuclein protein (α-synuclein protein): inhibit the initiation of aggregation
- gastrointestinal motility [5]: stimulates gastrointestinal motility
- gastrointestinal motility [6]: not associated with increased gastrointestinal motility
- patients with MMSE improvement of 3 or more points [7, 8]: 33%
- patients with MMSE improvement of 4 or more points [7, 8]: 20%
- patients with MMSE improvement of 5 or more points [7, 8]: 13%
- patients with MMSE improvement of 6 or more points [7, 8]: 1/15
- patients responding to drug treatment (increase in CSBM) ([7]; 29 patients with assessable bowel movements, 75 or 150 mg/daily, 25 days): About 80%
- hallucinations ([7]; Phase 2(b), PD patients): reduction in hallucinations
- sleep fragmentation ([7]; Phase 2(b), PD patients): decrease in sleep fragmentation
- total sleep time ([7]; Phase 2(b), PD patients): increase in total sleep time
- bowel function, MMSE scores, amount and quality of sleep, other neurological indices (UPDRS) ([7]; dose taken sitting or standing, compared to lying down): qualitative improvements
- Unrelated adverse event Flu-like symptoms*, Mild, % ([7]; n = 47): (6.3) %
